Columns and labels:
5-LO in bovine PMNL = target: T1, 5-LO in bovine PMNL (Bos taurus, UniProt F1MQ78); assay: Inhibition of 5-lipoxygenase (5-HETE and LTB4 biosynthesis) in Ca-ionophore-stimulated bovine PMNL; format: cell-based; conditions: N = 3 or more
T1 construct: The purified PMNLs were suspended at a concentration of; endogenous in cells; host or cells: polymorphonuclear leukocytes isolated from bovine blood
T1 sequence (F1MQ78 1-674): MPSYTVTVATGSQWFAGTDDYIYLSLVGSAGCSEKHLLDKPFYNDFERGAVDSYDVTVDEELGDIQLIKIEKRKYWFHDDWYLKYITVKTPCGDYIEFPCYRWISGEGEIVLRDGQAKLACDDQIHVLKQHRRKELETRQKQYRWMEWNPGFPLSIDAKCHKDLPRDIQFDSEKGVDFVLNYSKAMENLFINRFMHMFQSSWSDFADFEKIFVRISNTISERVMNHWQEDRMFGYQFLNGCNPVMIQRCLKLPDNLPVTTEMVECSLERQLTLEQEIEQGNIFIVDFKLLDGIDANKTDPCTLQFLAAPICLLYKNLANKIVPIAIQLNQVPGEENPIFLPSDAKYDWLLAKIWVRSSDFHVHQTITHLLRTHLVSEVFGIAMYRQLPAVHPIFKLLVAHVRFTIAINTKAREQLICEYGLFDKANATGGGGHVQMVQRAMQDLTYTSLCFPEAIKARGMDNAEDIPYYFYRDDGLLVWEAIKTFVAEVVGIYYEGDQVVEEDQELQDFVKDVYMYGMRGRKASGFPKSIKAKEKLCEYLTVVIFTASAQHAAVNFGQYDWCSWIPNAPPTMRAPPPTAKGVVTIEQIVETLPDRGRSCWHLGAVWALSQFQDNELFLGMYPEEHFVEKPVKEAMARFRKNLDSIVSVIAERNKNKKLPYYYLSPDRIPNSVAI

[1] = Inhibition of AAPH-induced lipid peroxidation in bovine brain phospholipid liposomes; format: biochemical; conditions: AAPH-induced; bovine brain phospholipid liposomes; N = 3 or more; read-out: LPO IC50 (inhibition of lipid peroxidation)
Method: Phospholipids were prepared essentially as described by Gutteridge, J. M. C., (Anal. Biochem., 82: 76-82 (1977)). Bovine brain tissue was cooled on ice, freed from blood vessels and washed repeatedly with 0.15 M NaCl, pH 7.4. The tissue was cut into pieces and then macerated with an ultra-turrax, passed through a fine-meshed sieve, and extracted four times with four times the volume of acetone. The extraction mixture was filtered by suction to remove the acetone, the residue dried under vacuum, and then repeatedly extracted with petroleum ether (40-60) using twice the volume of the original brain homogenate. The combined extracts were filtered, dried at 45° C., and dissolved in ether (one fifth the original brain volume). The mixture was treated with five times the volume of acetone, and the resulting precipitate was collected by suction-filtration, dried and stored under N2 at -20° C. in the dark. Bovine brain phospholipids were weighed into glass tubes and shaken in a vortex mixer (Heidolph) in the presence of five small glass beads (.phi. 4 mm) for 1 minute. The phospholipids were suspended in 0.15 M NaCl, pH 7.4, to a final concentration of 5 mg/ml. The mixture was purged with N2 for 1 minute and vigorously dispersed in a vortex mixer for 5 minutes. The liposomes were allowed to swell for 1 hour at 4° C., and vesicles with a mean size of 1-10 μm were obtained according to the method of Bangham, et al., (J. Mol. Biol., 13:238-252 (1965). The liposomes were stimulated with the azo initiator 2 2'-azobis (2-amidinopropane) hydrochloride according to the method of Gutteridge, J. M. C., (Anal. Biochem. 82:76-82 (1977)).
The following reagents were added to the glass tubes containing stimulating bovine brain phospholipid piposomes in the order and at the final concentrations listed: 0.3 ml HK2 PO4 --KOH buffer, pH 7.4 (30 mM), 0.29 ml double distilled H2 O, 0.2 ml liposomes (1 mg/ml), 0.2 ml FeCl3.H2 O (0.1 mM), 0.01 ml 2-substituted anthracenone compound of the invention (variable concentrations).
Appropriate blanks and controls using the vehicle (acetone) were conducted. The final reaction volumes were standardized to 1.0 ml. The reaction mixtures were incubated for 1 hour at 37° C. in a shaking water bath. […] of 20% (w/v) BHT, 0.5 ml 25% (w/v) HCl and 0.5 ml of 1% 2-thiobarbituric acid were added and the samples were heated at 100° C. for 15 minutes and then cooled in an ice bath (5 minutes). 2 ml of 1-butanol were added and the mixtures were vigorously shaken in a vortex mixer (Heidolph) for 15 seconds. The organic layer was separated by centrifugation at 3000 rpm (15 minutes) and absorbance at 532 nm was measured against butanol.

| SMILES | IC50 (5-LO in bovine PMNL) [µM] | IC50 [1] [µM] |
| --- | --- | --- |
| COC(=O)CCCCc1ccc2c(c1O)C(=O)c1c(O)cccc1C2 [IVB, Methyl 5-(9,10-Dihydro-1,8-dihydroxy-9-oxo-2-anthracene)pentanoate] | > 30 | 62 |
| CC(C(=O)N(C)O)c1ccc2c(c1O)C(=O)c1c(O)cccc1C2 (centres unmarked) [VIID, N-Hydroxy-N-methyl-2-(9,10-dihydro-1,8-dihydroxy-9-oxo-2-anthracene)propionamide] | 4 | 8 |
| COC(=O)C(c1ccc2c(c1O)C(=O)c1c(O)cccc1C2)C(C)C (centres unmarked) [VIIIB, Methyl 2-(9,10-Dihydro-1,8-dihydroxy-9-oxo-2-anthracene)-3-methylbutanoate] | > 30 | 165 |
| COC(=O)CCCCCc1ccc2c(c1O)C(=O)c1c(O)cccc1C2 [VB, Methyl 6-(9,10-Dihydro-1,8-dihydroxy-9-oxo-2-anthracene) hexaonate] | > 30 | 120 |

Source: patent US5922891A, “2-substituted 1,8-dihydroxy-9(10H)-anthracenone pharmaceuticals” (priority 1997, dated 1999)
